Results from ChEMBL document CHEMBL5518222, “Retro-Inverso Collagen Modulator Peptide Derived from Serpin A1 with Enhanced Stability and Activity In Vitro” (J Med Chem, 2024).
Blank lines part the entries; values can stand above or below the compound they belong to. Active and inactive are the calls of the source. The rule behind the calls is not given here. Peptide text beside a SMILES is read from it. * marks the point of attachment. Palmitoyl = CCCCCCCCCCCCCCCC(=O)*

Assays:
NHDF [1] = assay: Upregulation of collagen level in neonatal HDF cell lysate at 20 uM incubated for 72 hrs by Western blot analysis; format: functional, subcellular; conditions: Homo sapiens
NHDF [2] = assay: Downregulation of enzyme-digested low molecular weight collagen level in neonatal HDF cell conditioned media at 20 uM incubated for 48 hrs by Western blot analysis; format: functional, cell-based; conditions: Homo sapiens
[3] = Upregulation of procollagen level in neonatal HDF cell conditioned media at 20 uM incubated for 72 hrs by Western blot analysis relative to control; format: functional, Homo sapiens, NHDF
[4] = Stability of compound in human skin homogenate assessed as dermal protease mediated stability by measuring compound remaining measured after 24 hrs by HPLC-MS/MS analysis; format: ADME, tissue-based, Skin of body; conditions: read-out: Stability
[5] = target: Matrix metalloproteinase-9 (Homo sapiens) (UniProt P14780); assay: Inhibition of MMP-9 (unknown origin)
Chain of Matrix metalloproteinase-9 (Homo sapiens) (P14780 whole entry): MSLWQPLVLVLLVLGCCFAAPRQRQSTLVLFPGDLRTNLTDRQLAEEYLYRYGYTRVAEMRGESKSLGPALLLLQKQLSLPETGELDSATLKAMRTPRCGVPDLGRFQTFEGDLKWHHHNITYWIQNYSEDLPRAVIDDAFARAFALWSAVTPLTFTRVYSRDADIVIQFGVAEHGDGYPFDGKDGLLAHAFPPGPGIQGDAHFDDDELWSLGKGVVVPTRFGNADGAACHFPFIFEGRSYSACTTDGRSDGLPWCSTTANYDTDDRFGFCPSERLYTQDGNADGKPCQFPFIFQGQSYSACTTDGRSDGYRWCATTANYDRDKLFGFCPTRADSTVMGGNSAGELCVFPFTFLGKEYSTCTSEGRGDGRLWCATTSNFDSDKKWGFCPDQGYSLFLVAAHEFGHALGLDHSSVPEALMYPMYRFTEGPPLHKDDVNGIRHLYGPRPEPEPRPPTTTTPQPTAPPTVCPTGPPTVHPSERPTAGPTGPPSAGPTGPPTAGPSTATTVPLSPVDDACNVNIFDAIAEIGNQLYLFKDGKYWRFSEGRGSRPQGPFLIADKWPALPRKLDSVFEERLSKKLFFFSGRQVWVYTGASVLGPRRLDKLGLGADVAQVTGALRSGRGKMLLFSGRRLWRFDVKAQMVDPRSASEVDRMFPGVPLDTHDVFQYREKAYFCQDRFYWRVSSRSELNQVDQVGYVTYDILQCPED

NHDF [6] = assay: Inhibition of cell invasion in neonatal HDF cells assessed as decrease in number of migrated cells in acceptor chamber at 20 uM incubated for 72 hrs by Boyden chamber invasion assay; format: functional, cell-based; conditions: Homo sapiens
NHDF [7] = assay: Cytotoxicity against neonatal HDF cells assessed as reduction in cell viability incubated for 72 hrs by MTS assay; format: toxicity, cell-based; conditions: human
[8] = target: T1, Neutrophil elastase (Homo sapiens) (UniProt P08246); assay: Inhibition of neutrophil elastase (unknown origin)
T1 sequence (whole entry): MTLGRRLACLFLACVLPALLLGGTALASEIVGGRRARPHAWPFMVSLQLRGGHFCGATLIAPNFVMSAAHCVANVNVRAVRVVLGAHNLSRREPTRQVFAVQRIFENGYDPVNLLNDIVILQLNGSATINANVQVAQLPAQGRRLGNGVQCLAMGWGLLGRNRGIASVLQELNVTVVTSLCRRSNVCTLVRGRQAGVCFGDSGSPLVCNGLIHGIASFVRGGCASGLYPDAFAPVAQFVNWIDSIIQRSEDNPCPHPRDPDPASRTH

Compound: Ac-MGKVVNPTQK-NH2
Activity (NHDF [1]): Active
Activity (NHDF [2]): Active
Activity [3]: 57%

remaining at 24 h [4]: 36%
Compound: CCCCCCCCCCCCCCCC(=O)N[C@@H](CCCCN)C(=O)N[C@H](C(=O)N[C@H](C(=O)N[C@@H](CCCCN)C(=O)N[C@@H](CO)C(=O)O)[C@@H](C)O)[C@@H](C)O (Palmitoyl-KTTKS-OH)

inhibition [5]: inactive
remaining at 24 h [4]: 99.6%
inhibition [8]: inactive
Compound: CC(=O)N[C@H](CC(N)=O)C(=O)N[C@@H](C(=O)N[C@@H](C(=O)N[C@H](CCCCN)C(N)=O)C(C)C)C(C)C
Activity (NHDF [1]): Active
inhibition (NHDF [6]): Active
Activity (NHDF [7]): Non-Toxic

Compound: CC(=O)N[C@H](CCCCN)C(=O)N[C@@H](C(=O)N[C@@H](C(=O)N[C@H](CC(N)=O)C(N)=O)C(C)C)C(C)C
Activity (NHDF [1]): Active
Activity (NHDF [7]): Non-Toxic

Compound: CSCC[C@H](NC(C)=O)C(=O)NCC(=O)N[C@@H](CCCCN)C(=O)N[C@H](C(N)=O)C(C)C (Ac-MGKV-NH2)
Activity (NHDF [1]): Active
Activity (NHDF [2]): Active
Activity [3]: 116%
Activity (NHDF [7]): Non-Toxic

Compound: CC(=O)N[C@H](C(=O)N[C@@H](CC(N)=O)C(=O)N1CCC[C@H]1C(=O)N[C@H](C(N)=O)[C@@H](C)O)C(C)C (Ac-VNPT-NH2)
Activity (NHDF [1]): Active
Activity (NHDF [2]): Active
Activity [3]: 48%
Activity (NHDF [7]): Non-Toxic

Compound: CC(=O)N1CCC[C@H]1C(=O)N[C@H](C(=O)N[C@@H](CCC(N)=O)C(=O)N[C@@H](CCCCN)C(N)=O)[C@@H](C)O (Ac-PTQK-NH2)
Activity (NHDF [1]): Active
Activity (NHDF [2]): Active
Activity [3]: 31%
Activity (NHDF [7]): Non-Toxic

Compound: CC(=O)N[C@@H](CCCCN)C(=O)N[C@H](C(=O)N[C@H](C(=O)N[C@@H](CC(N)=O)C(N)=O)C(C)C)C(C)C
Activity (NHDF [1]): Active
Activity (NHDF [2]): Active
Activity [3]: 87%
Activity (NHDF [7]): Non-Toxic
